# Columns and labels:
# desaturase DES2 = assay: keratinocyte differentiation, real-time RT-PCR of DES2 transcripts; format: cell-based, human; details: NHK, 48 hours
# Method: (§1) Normal human keratinocytes (NHK) proliferate and differentiate in vitro, forming stratified layers which mimic the basal organisation of the skin. Extracellular calcium concentrations in excess of 0.1 mM initiate a cascade of genome and non-genome events which take the keratinocytes from a proliferative phase towards a differentiation phase. Keratinocyte differentiation can then be evaluated by studying the expression of several markers such as keratins 1 and 10, transglutaminase 1, desaturase DES2, involucrine, FATP4 and ABCG1 transporters. We therefore evaluated the effect of certain hydroxyalcene carboxylic acids in an in vitro culture model.
# (§2) Normal human keratinocytes are isolated from skin explants. They are cultured in KSFM medium (Gibco) with a low calcium content (0.1 mM) containing 25 μg/ml of BPE (bovine pituitary extract) and […] of EGF (epithelium growth factor). 24 hours after culturing, differentiation is triggered by the addition of calcium (final concentration 1.2 mM). The active ingredients are added or not at the same time as calcium at concentrations of 100 and 1 μg/ml in order to determine whether or not they have a potentialising effect on differentiation. Cells were then analysed 48 hours after the addition of calcium and these products.
# (§3) Total RNA was extracted under cold conditions from keratinocytes.
# (§4) After reverse transcription of mRNA into cDNA, PCRs were made up in 96 well plates (iCycler quantitative PCR apparatus, BioRad). Expression of transcripts of transglutaminase, desaturase (DES2), ABCG1 and FATP4 were standardized with respect to the expression of reference genes (GAPDH, UBC, HPRT).
# ABCG1 = assay: keratinocyte differentiation, real-time RT-PCR of ABCG1 transcripts; format: cell-based, human; details: NHK, 48 hours
# Method: as §1, §2, §3, §4
# transglutaminase 1 (TG1) = assay: keratinocyte differentiation, real-time RT-PCR of transglutaminase 1 transcripts; format: cell-based, human; details: NHK, 48 hours
# Method: as §1, §2, §3, §4
# FATP4 = assay: keratinocyte differentiation, real-time RT-PCR of FATP4 transcripts; format: cell-based, human; details: NHK, 48 hours
# Method: as §1, §2, §3, §4
# [1] = system: membrane lipids, fibroblast line L929; assay: TBARS test, lipid peroxidation after H2O2/Fe2+/Fe3+; format: cell-based, murin; details: 0.02 ng/ml, pretreated 16 hours
# Source text: In order to evaluate membrane changes, we measured lipid peroxidation by in vitro assay of complexes between the products of lipid oxidation and thiobarbituric acid. These complexes are called TBARS (thiobarbituric acid reactive substances) and give the test its name: TBARS Test.
# In order to mimic chemical oxidative stress, we treated a fibroblast line (L929) with a complex consisting of hydrogen peroxide (H2O2) and iron (Fe^2+/Fe^3+) thus reconstituting the Fenton reaction which is the source of oxygenated free radicals and particularly the hydroxyl radical (OH°) (D. A Vessey et al. 1992): H2O2+Fe^2+→OH°+OH^−+Fe^3+
# The products were evaluated on a murin fibroblast line L929. Cells were pretreated with different concentrations of the product for 16 hours and were then stimulated with the H2O2/Fe^2+/Fe^3+ complex (200 μM−1 mM) for 1 hour. • Stock solutions: 100 mg/ml ethanol, 4° C. • Final solutions: 0.02 ng/ml.
# Peroxidation of membrane lipids was analysed by measuring TBARS (Protocol ref. PLN°2, according to Morliere et al, 1991).
# […]. TBARS assays are therefore expressed in pmole/μg of protein. Proteins and TBARS are assayed in the intracellular medium.
# Using the TBARS calculation in pmole/μg protein, we calculated the protective efficacy of various products against the oxidation of lipid membranes.
# Four separate experiments were carried out. Several compounds were evaluated in the course of these experiments (the test only allows 10 molecules to be evaluated at one time). The compounds were evaluated several times and were chosen as a function of the results obtained in another test which also measured anti-radical activity (assay test for activated oxygen species).
# The model used in this experiment (Fenton reaction) triggers considerable lipid peroxidation of the L929 fibroblasts. This massive release of the hydroxyl radical OH° thus generates oxidative stress in the cells, particularly in the membranes. However, in this type of oxidative reaction, the products resulting from lipid peroxidation are internalized in the cells and TBARS are therefore assayed in the intracellular medium.
# [2] = system: intracellular AOSs, fibroblast line L929; assay: in vitro assay of intracellular AOSs (H2DCF-DA probe) after H2O2/iron oxidative stress; format: cell-based, murin; details: pre-incubation 3 h, L929
# Source text: We set up an in vitro study model of oxidative stress induced by H2O2/iron as H2O2 generates huge amounts of intracellular AOSs as a result of a chain reaction triggered by oxidation of membrane lipids.
# This technique is based on the use of a fluorescent probe, 6-carboxy-2′,7′-dichlorodihydro fluorescein diacetate, di (acetoxymethyl ester) (H2DCF-DA) which once it penetrates into the cell is deacetylated by intracellular esterases and thus forms H2DCF. This product is oxidized by intracellular AOSs into a highly fluorescent compound: 2′,7′-dichlorofluorescein (DCF) (Suematsu M et al., 1996, Free Radicals Practical Approach, Punchard ed. P 83-99).
# The materials and methods used for in vitro assay of intracellular AOSs are given below. • a) Cell tool • Cutaneous murin fibroblast cell line L929. • b) Materials • 96 well flat based microplate. • Cytofluor II cytofluorameter: Ref. PERCEPTIVE BIOSYSTEMS. • c) Reagents • Cell culture reagents: • Dulbecco's Modified Eagle Medium as the culture medium (DMEM) • Foetal calf serum • Phosphate buffer PBS pH 7.4 • Trypsin EDTA (1X) Fluorescent probe • 6-carboxy-2′,7′-dichlorodihydrofluorescein diacetate, di(acetoxymethyl ester) (PM.675,43) Cell stimulation products • Hydrogen peroxide (H2O2) 3% Ref. GIFRER (Gifrer Barbezat Laboratory) • Ferrous ammonium sulphate (Fe^2+) • Ferric ammonium sulphate (Fe^3+) • d) Products tested:
# For the evaluation of unsaturated fatty hydroxy acid derivatives, the dilutions are prepared in freshly prepared culture medium for a concentration range of 0.02, 0.2, 2 and 20 ng/ml. • e) Protocol. Cell culturing.
# Cells from the fibroblast line L929 were cultured in 96-well flat base microplates in 100 μl of DMEM supplemented with 10% foetal calf serum. These were incubated overnight at 37° C. in a humid atmosphere at 5% CO2. The blank plate without cells was evaluated using 6 wells.
# Dilutions of the products to be tested and reference molecule were made up in culture medium without foetal calf serum then deposited in 7 wells at a rate of 100 μl per well.
# Cells were then incubated for 3 hours at 37° C. in a humid atmosphere at 5% CO2.
# Cells were rinsed in PBS 1X at a rate of 100 μl per well. They were then incubated for 30 minutes at 37° C. in a humid atmosphere at 5% CO2 with 50 μl of the H2DCF-DA probe at 5 μM.
# After 30 minutes of contact with the probe alone, cells were incubated for 30 minutes at 37° C. in a humid atmosphere at 5% CO2 with the addition of 25 μl of H2O2 at 800 μM and 25 μl of ferrous iron and ferric iron solution at 8 mM in order to obtain final concentrations of 200 μM of H2O2 and 2 mM of ferrous iron and ferric iron.
# Cells were then rinsed with PBS 1X at a rate of 100 μl per well then incubated for 30 minutes at 37° C. in a humid atmosphere at 5% CO2 with 100 μl of PBS 1X.
# This incubation for 1 h 30 minutes at 37° C. allows intracellular esterases to deacetylate the probe into H2DCF which can be oxidized by the intracellular AOSs into DCF: a fluorescent compound whose formation is proportional to the quantity of intracellular AOSs.
# The intensity of fluorescence is read on a cytofluorimeter at λexcitation=485 nm and λemission=530 nm. This reflects the amount of intracellular AOS produced.
# The ratio below makes it possible to calculate the % protection against the production of intracellular AOSs for each product concentration tested (because the intensity of fluorescence or IF reflects the release of intracellular AOSs)
# • Pre-incubation: 3 h • Number of tests=3 for all compounds. • Number of tests=18 for vit. E
# PAR-2 receptors = target: T1, PAR-2 receptors (Homo sapiens, UniProt P55085); assay: calcium flux induced by trypsin stimulation of PAR-2 receptors in HaCaT keratinocytes (Fluo-4/AM); format: cell-based; details: trypsin 10 nM
# T1 construct: PAR-2 receptors for trypsin present in human keratinocytes from the HaCaT line; endogenous in cells; host or cells: HaCaT human keratinocytes
# T1 sequence (P55085 26-397): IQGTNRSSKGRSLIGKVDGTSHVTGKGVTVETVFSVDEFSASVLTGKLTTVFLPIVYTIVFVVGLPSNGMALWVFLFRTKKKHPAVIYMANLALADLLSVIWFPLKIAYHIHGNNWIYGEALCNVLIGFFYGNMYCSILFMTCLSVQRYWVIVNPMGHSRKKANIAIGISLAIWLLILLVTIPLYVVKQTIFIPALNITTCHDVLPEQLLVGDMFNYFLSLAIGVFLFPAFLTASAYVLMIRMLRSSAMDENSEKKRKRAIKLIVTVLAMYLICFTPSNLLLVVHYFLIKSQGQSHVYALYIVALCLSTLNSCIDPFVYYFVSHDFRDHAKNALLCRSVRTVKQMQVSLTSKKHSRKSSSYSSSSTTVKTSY
# Source text: We therefore considered evaluating anti-PAR-2 activity of hydroxyl acid derivatives of formula I on the influx of intracellular calcium induced after specific stimulation by PAR-2 receptors for trypsin present in human keratinocytes from the HaCaT line.
# This technique is based on the use of an esterified fluorescent probe by an AM group which facilitates its penetration by passive diffusion into the cell. The probe used is Fluo-4/AM. Only the de-esterified form bound to the calcium ion is excitable in fluorescence (at 485 nm) and emits at 535 nm.
# In vitro, at the cell level, specific stimulation of the PAR-2 receptors by trypsin leads to mobilisation of intra and extracellular calcium detected with the aid of the fluorescent probe.
# Interleukin 8 = assay: release of Interleukin 8 by keratinocytes NHK stimulated with PMA + calcium ionophore A23187 (ELISA); format: cell-based, human; details: 3 μg/ml, keratinocytes, PMA + A23187 6 hours
# Method: In this study, carried out using 96 well plates, we evaluated the activity of hydroxyl alkine acids on the production of Interleukin 8 produced in the keratinocytes by phorbol ester PMA and calcium ionophore A23187.
# A suspension of keratinocytes in supplemented KSFM was divided between 96 well plates (3.10^4 cells/wells) and incubated for 16 hours at 37° C. under an atmosphere of 5% CO2. The keratinocytes were then rinsed with PBS in order to eliminate non adhering cells then exposed to the products to be tested included in non supplemented KSFM (which could interfere with the assay).
# The concentration tested in culture was 3 μg/ml. This was retained after a preliminary test to evaluate cytotoxicity (neutral red) and is not cytotoxic.
# 3 wells were used for each treatment. Cells were preincubated for 60 minutes with the products to be tested then stimulated, in parallel to negative controls without stimulant: Phorbol Myristate Acetate (PMA) 1 μm+Calcium ionophore (A23187) 0.1 μm.
# Incubation for 6 hours at 37° C. in a humid air atmosphere containing 5% CO2.
# The culture medium for each of the wells was recovered, centrifuged at 3000 rpm and stored at −80° C.
# Cytokine assay: IL8 was assayed using the ELISA kit immunoenzyme method (immunotech).
# The results are given as percentage activity/stimulated control.
# The compounds according to the invention were evaluated in terms of anti-inflammatory activity on the release of Interleukin 8 by human keratinocytes NHK stimulated by phorbol ester PMA+calcium ionophore A23187.
SMILES,Induction Factor vs Control (CaCl2 1.2 mM) DES2 (desaturase DES2; 1 μg/ml),Induction Factor vs Control (CaCl2 1.2 mM) DES2 (desaturase DES2; 100 μg/ml),Induction Factor vs Control (CaCl2 1.2 mM) ABCG1 (ABCG1; 1 μg/ml),Induction Factor vs Control (CaCl2 1.2 mM) ABCG1 (ABCG1; 100 μg/ml),Induction Factor vs Control (CaCl2 1.2 mM) TG1 (transglutaminase 1 (TG1); 1 μg/ml),Induction Factor vs Control (CaCl2 1.2 mM) TG1 (transglutaminase 1 (TG1); 100 μg/ml),Induction Factor vs Control (CaCl2 1.2 mM) FATP4 (FATP4; 1 μg/ml),Induction Factor vs Control (CaCl2 1.2 mM) FATP4 (FATP4; 100 μg/ml),"% membrane lipid protection, Mean [1]",Percentage inhibition of the intracellular production of AOS ([2]; 0.02 ng/ml),Percentage inhibition of the intracellular production of AOS ([2]; 0.2 ng/ml),Percentage inhibition of the intracellular production of AOS ([2]; 2 ng/ml),Percentage inhibition of the intracellular production of AOS ([2]; 20 ng/ml),% inhibition (PAR-2 receptors; 10 μg/ml),% stimulation (PAR-2 receptors; 10 μg/ml),% inhibition (PAR-2 receptors; 30 μg/ml),% stimulation (PAR-2 receptors; 30 μg/ml),% inhibition (PAR-2 receptors; 100 μg/ml),% stimulation (PAR-2 receptors; 100 μg/ml),% inhibition of IL-8 release (Interleukin 8)
"O=C(O)C(F)=CCCCCO (mixture of isomers) [n=3, R=H, Rn=H, R1=F]",1.7,1.9,1.5,1.2,1.5,0.9,1.2,1.2,38.14%,3%,−3%,−32%,−51%,,,,,,,
"O=C(O)C(F)=CCCCCCCCCCCCCCCCO (mixture of isomers) [n=14, R=H, Rn=H, R1=F]",2.8,,4.0,,1.7,,1.0,,35.30%,6%,−17%,−26%,−42%,,,,,,,
"O=C(O)/C=C/CCCCCCO [n=5, R=H, Rn=H, R1=H, 9-hydroxy-nona-2t-enoic acid]",1.8,,2.7,,1.5,,1.0,,,56%,47%,46%,36%,,,,,,,
"O=C(O)/C=C/CCCCCCCCCCCCCCCO [n=14, R=H, Rn=H, R1=H, 18-hydroxy-octadec-2t-enoic acid]",,,,,,,,,,,,,,−10%,14.68%,8%,12.90%,23%,11.37%,Non-active

# — patent publication US8158811B2, “Unsaturated fatty hydroxy acid derivatives and the dermocosmetologic use thereof” (Pierre Fabre Dermo-Cosmetique, priority 2005, dated 2012)
